Measurements from ChEMBL document CHEMBL3046914, “Synthesis and anticancer effects of pongamol derivatives on mitogen signaling and cell cycle kinases” (Med Chem Res, 2012).
Activity calls are given as the source filed them. No cut-off for these calls is given here.

Experiments:
[1] = Cytotoxicity against fibroblasts
IMR-32 [2] = assay: Cell cycle arrest in Homo sapiens (human) IMR32 cells assessed as decrease of G1 phase cell accumulation at 20 to 200 uM by FACS analysis; type: functional, cell-based
IMR-32 [3] = assay: Cell cycle arrest in Homo sapiens (human) IMR32 cells assessed as decrease of G2-M phase cell accumulation at 20 to 200 uM by FACS analysis; type: functional, cell-based
IMR-32 [4] = assay: (§1) Cytotoxicity against Homo sapiens (human) IMR32 cells after 16 hr by MTT assay; type: functional, cell-based
IMR-32 [5] = assay: Cytotoxicity against Homo sapiens (human) IMR32 cells at 20 to 200 uM after 16 hr by MTT assay; type: functional, cell-based
HeLa [6] = assay: Cell cycle arrest in Homo sapiens (human) HeLa cells assessed as decrease of G2-M phase cell accumulation at 20 to 200 uM by FACS analysis; type: functional, cell-based
[7] = biological target: Cyclin-dependent kinase 2 (Homo sapiens) (UniProt P24941); assay: Destabilization of CDK2 in Homo sapiens (human) Jurkat cells by immunoblot analysis; type: cell-based
Jurkat [8] = assay: Cytotoxicity against Homo sapiens (human) Jurkat cells after 16 hr by MTT assay; type: functional
[9] = biological target: Cyclin-dependent kinase 2 (Homo sapiens) (UniProt P24941); assay: Destabilization of CDK2 in Homo sapiens (human) IMR32 cells by immunoblot analysis; type: cell-based; conditions: IMR-32
[10] = biological target: Mitogen-activated protein kinase 3 (Homo sapiens) (UniProt P27361); assay: Destabilization of ERK1 in Homo sapiens (human) HeLa cells by immunoblot analysis; type: cell-based
Sequence of Mitogen-activated protein kinase 3 (Homo sapiens) (P27361 whole entry): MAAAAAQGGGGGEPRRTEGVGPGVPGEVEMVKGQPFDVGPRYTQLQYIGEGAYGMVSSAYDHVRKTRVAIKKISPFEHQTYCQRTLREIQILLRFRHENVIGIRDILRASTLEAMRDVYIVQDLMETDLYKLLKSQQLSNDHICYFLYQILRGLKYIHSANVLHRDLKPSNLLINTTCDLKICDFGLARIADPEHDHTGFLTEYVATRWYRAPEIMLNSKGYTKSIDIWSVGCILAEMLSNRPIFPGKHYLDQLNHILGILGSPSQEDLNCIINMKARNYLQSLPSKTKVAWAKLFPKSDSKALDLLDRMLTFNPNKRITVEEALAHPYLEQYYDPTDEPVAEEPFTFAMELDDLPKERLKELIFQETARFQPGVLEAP

Jurkat [11] = assay: Cell cycle arrest in Homo sapiens (human) Jurkat cells assessed as decrease of G1 phase cell accumulation at 20 to 200 uM by FACS analysis; type: functional, cell-based
[12] = biological target: Cyclin-dependent kinase 2 (Homo sapiens) (UniProt P24941); assay: Destabilization of CDK2 in Homo sapiens (human) HeLa cells by immunoblot analysis; type: cell-based
IMR-32 [13] = assay: as §1; type: functional
Jurkat [14] = assay: Cell cycle arrest in Homo sapiens (human) Jurkat cells assessed as decrease of G2-M phase cell accumulation at 20 to 200 uM by FACS analysis; type: functional, cell-based
HeLa [15] = assay: Cytotoxicity against Homo sapiens (human) HeLa cells after 16 hr by MTT assay; type: functional
Homo sapiens = organism: Homo sapiens; assay: Inhibition of tyrosine kinase (unknown origin)
IMR-32 [16] = assay: Cytotoxicity against Homo sapiens (human) IMR32 cells at 200 uM after 16 hr by MTT assay; type: functional
HeLa [17] = assay: Cell cycle arrest in Homo sapiens (human) HeLa cells assessed as decrease of G1 phase cell accumulation at 20 to 200 uM by FACS analysis; type: functional, cell-based
HeLa [18] = assay: Induction of endoplasmic reticulum stress in Homo sapiens (human) HeLa cells assessed as Grp94 expression by immunoblot analysis; type: functional, cell-based
Jurkat [19] = assay: Induction of endoplasmic reticulum stress in Homo sapiens (human) Jurkat cells assessed as Grp94 expression by immunoblot analysis; type: functional, cell-based
IMR-32 [20] = assay: Induction of endoplasmic reticulum stress in Homo sapiens (human) IMR32 cells assessed as Grp94 expression by immunoblot analysis; type: functional, cell-based
[21] = biological target: Mitogen-activated protein kinase 3 (Homo sapiens) (UniProt P27361); assay: Destabilization of ERK1 in Homo sapiens (human) IMR32 cells by immunoblot analysis; type: cell-based; conditions: IMR-32
[22] = biological target: Mitogen-activated protein kinase 3 (Homo sapiens) (UniProt P27361); assay: Destabilization of ERK1 in Homo sapiens (human) Jurkat cells by immunoblot analysis; type: cell-based

Structure (SMILES)	Activity [1]	Activity (IMR-32 [2])	Activity (IMR-32 [3])	Activity (IMR-32 [4])	Activity (IMR-32 [5])	Activity (HeLa [6])	Activity (Jurkat [8]) [%]	Activity (Jurkat [11])	Activity (IMR-32 [13]) [%]	Activity (Jurkat [14])	Activity (HeLa [15]) [%]	inhibition (Homo sapiens)	Activity (HeLa [17])	further results
COc1c(-c2cc(-c3ccccc3)n(-c3ccccc3C)n2)ccc2occc12	Non-toxic	Active	inactive	Dose-dependent effect										
COc1ccc(-n2nc(-c3ccc4occc4c3OC)cc2-c2ccccc2)cc1	Non-toxic		inactive		inactive									
COc1c(-c2cc(-c3ccccc3)n(-c3ccccc3F)n2)ccc2occc12	Non-toxic	Active	inactive	Dose-dependent effect		Active	45	Active	71	Active	35	inactive	Active	Activity [7]: Active; Activity [9]: Active; Activity [10]: Active; Activity [12]: Active; Activity (IMR-32 [16]): 60%
COc1c(C(=O)/C=C(\O)c2ccccc2)ccc2occc12 [PONGAMOL]	Non-toxic		Active		inactive	Active	17	Active	38	Active	23	inactive	Active	Activity (HeLa [18]): Active; Activity (Jurkat [19]): Active; Activity (IMR-32 [20]): Active
COc1c(-c2cc(-c3ccccc3)n(-c3ccc(Cl)cc3Cl)n2)ccc2occc12	Non-toxic		inactive		inactive									
COc1c(-c2cc(-c3ccccc3)n(-c3cccc([N+](=O)[O-])c3)n2)ccc2occc12	Non-toxic		inactive	Dose-dependent effect										
COc1c(-c2cc(-c3ccccc3)on2)ccc2occc12	Non-toxic	Active	Active	Dose-dependent effect		Active	31	Active	58	Active	26	inactive	Active	Activity [7]: Active; Activity [21]: Active; Activity [22]: Active; Activity [9]: Active; Activity [10]: Active; Activity [12]: Active; Activity (IMR-32 [16]): 60%
COc1c(-c2cc(-c3ccccc3)n(-c3cccc(F)c3)n2)ccc2occc12	Non-toxic	Active	Active	Dose-dependent effect		Active	35	Active	86	Active	28	inactive	Active	Activity (HeLa [18]): Active; Activity (Jurkat [19]): Active; Activity [7]: Active; Activity [21]: Active; Activity (IMR-32 [20]): Active; Activity [9]: Active; Activity [12]: Active; Activity (IMR-32 [16]): 60%
COc1c(-c2cc(-c3ccccc3)n(-c3ccc(C)cc3C)n2)ccc2occc12	Non-toxic		inactive		inactive									
COc1c(-c2cc(-c3ccccc3)n(-c3ccc([N+](=O)[O-])cc3[N+](=O)[O-])n2)ccc2occc12	Non-toxic		inactive	Dose-dependent effect										
COc1c(-c2cc(-c3ccccc3)[nH]n2)ccc2occc12	Non-toxic		inactive	Dose-dependent effect										
COc1c(-c2cc(-c3ccccc3)n(-c3ccccc3)n2)ccc2occc12	Non-toxic		inactive		inactive									
COc1c(-c2cc(-c3ccccc3)n(-c3ccc(F)cc3)n2)ccc2occc12	Non-toxic		inactive	Dose-dependent effect										
